Columns and labels:
CDK6/Cyclin D3 = CDK6/Cyclin D3 (Homo sapiens (Human), UniProt Q00534); assay: TR-FRET kinase inhibition assay, CDK6/Cyclin D3; type: biochemical; conditions: 1 mM ATP, 0.15 μM Rb (Ser780)-biotin substrate, read-out: CDK6D3 IC50
Method in brief: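 Kinase preincubated 60 min at room temperature with 0–10 μM compound; reaction started with 1 mM ATP and 0.15 μM Rb (Ser780)-biotin, run 120 min at room temperature in HEPES pH 7.0, 50 mM MgCl2. pRb detected by TR-FRET (665/620 nm ratio); IC50 from four-parameter logistic fit.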

CDK4/Cyclin D1 = CDK4/Cyclin D1 (Homo sapiens (Human), UniProt P11802); assay: TR-FRET kinase inhibition assay, CDK4/Cyclin D1; type: biochemical; conditions: 1 mM ATP, 0.15 μM Rb (Ser780)-biotin substrate, read-out: CDK4D1 IC50
Sequence of CDK4/Cyclin D1 (P11802 whole entry): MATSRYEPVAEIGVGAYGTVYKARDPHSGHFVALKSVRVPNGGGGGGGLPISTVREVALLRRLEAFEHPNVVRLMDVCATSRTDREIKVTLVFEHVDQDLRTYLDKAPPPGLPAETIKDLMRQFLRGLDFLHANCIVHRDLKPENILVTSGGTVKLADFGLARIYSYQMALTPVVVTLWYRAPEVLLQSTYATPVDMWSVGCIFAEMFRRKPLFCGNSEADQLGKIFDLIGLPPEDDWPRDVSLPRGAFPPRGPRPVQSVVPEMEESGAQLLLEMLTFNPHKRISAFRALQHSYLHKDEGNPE
Sequence of CDK4/Cyclin D1 (P24385 whole entry partner): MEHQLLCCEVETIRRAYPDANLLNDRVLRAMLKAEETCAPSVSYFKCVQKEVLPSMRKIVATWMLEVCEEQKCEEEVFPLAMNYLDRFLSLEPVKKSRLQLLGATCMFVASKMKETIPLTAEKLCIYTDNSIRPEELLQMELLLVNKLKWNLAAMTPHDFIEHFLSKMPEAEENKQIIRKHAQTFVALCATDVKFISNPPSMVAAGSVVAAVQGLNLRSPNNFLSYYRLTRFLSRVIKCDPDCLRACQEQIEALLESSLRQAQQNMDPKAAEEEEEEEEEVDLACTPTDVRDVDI
Method in brief: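 Kinase was preincubated with compound for 60 min at room temperature, then reacted with ATP and Rb (Ser780)-biotin substrate for 120 min. IC50 came from a four-parameter logistic fit.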

Sequence of CDK6/Cyclin D3 (Q00534 whole entry): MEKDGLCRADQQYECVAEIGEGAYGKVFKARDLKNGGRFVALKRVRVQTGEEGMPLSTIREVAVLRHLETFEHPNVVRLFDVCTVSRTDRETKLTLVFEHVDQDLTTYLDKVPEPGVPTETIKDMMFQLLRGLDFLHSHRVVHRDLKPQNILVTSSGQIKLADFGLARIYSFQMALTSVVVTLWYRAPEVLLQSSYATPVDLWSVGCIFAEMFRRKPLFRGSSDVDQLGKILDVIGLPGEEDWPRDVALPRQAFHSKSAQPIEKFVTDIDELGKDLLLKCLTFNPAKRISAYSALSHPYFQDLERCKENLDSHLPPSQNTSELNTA
Sequence of CDK6/Cyclin D3 (P30281 whole entry partner): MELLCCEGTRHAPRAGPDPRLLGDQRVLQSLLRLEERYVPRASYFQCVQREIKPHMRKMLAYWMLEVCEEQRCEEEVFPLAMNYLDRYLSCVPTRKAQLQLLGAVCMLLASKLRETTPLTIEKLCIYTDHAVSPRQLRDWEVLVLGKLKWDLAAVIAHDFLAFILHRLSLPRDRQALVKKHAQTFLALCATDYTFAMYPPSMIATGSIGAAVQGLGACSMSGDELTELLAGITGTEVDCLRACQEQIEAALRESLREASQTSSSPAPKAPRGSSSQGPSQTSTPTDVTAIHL

SMILES	IC50 (CDK6/Cyclin D3) [nM]	IC50 (CDK4/Cyclin D1) [nM]
CCc1cc(=O)c2ccc(-c3nc(N[C@@H]4CCOC[C@H]4O)ncc3F)cc2n1C(C)C [Example 55, 2-ethyl-7-(5-fluoro-2-(((3S,4R)-3-hydroxytetrahydro-2H-pyran-4-yl)amino)pyrimidin-4-yl)-1-isopropylquinolin-4(1H)-one]	345	15
CNC(=O)c1c(Cl)c(=O)c2ccc(-c3nc(N[C@@H]4CCOC[C@H]4O)ncc3F)cc2n1C(C)C [Example 23, 3-chloro-7-(5-fluoro-2-(((3S,4R)-3-hydroxytetrahydro-2H-pyran-4-yl)amino)pyrimidin-4-yl)-1-isopropyl-N-methyl-4-oxo-1,4-dihydroquinoline-2-carboxamide]	445	53
CC(C)n1cc(C(C)(C)O)c(=O)c2ccc(-c3nc(N[C@@H]4CCOC[C@H]4O)ncc3F)cc21 [Example 5, 7-(5-fluoro-2-(((3S,4R)-3-hydroxytetrahydro-2H-pyran-4-yl)amino)pyrimidin-4-yl)-3-(2-hydroxypropan-2-yl)-1-isopropylquinolin-4(1H)-one]	3240	249
CC(C)n1c(CN2CC[C@@H](F)C2)cc(=O)c2ccc(-c3nc(N[C@@H]4CCOC[C@H]4O)ncc3F)cc21 [Example 49, 7-(5-fluoro-2-(((3S,4R)-3-hydroxytetrahydro-2H-pyran-4-yl)amino)pyrimidin-4-yl)-2-(((R)-3-fluoropyrrolidin-1-yl)methyl)-1-isopropylquinolin-4(1H)-one]	299	8.3
CC(C)n1c(CN2CCOCC2)cc(=O)c2ccc(-c3nc(N[C@@H]4CCOC[C@H]4O)ncc3Cl)cc21 [Example 26, 7-(5-chloro-2-(((3S,4R)-3-hydroxytetrahydro-2H-pyran-4-yl)amino)pyrimidin-4-yl)-1-isopropyl-2-(morpholinomethyl)quinolin-4(1H)-one]	336	16
CC(C)n1c(CN2C[C@H](O)[C@@H](F)C2)cc(=O)c2ccc(-c3nc(N[C@@H]4CCOC[C@H]4O)ncc3F)cc21 [Example 32, 7-(5-fluoro-2-(((3S,4R)-3-hydroxytetrahydro-2H-pyran-4-yl)amino)pyrimidin-4-yl)-2-(((3S,4S)-3-fluoro-4-hydroxypyrrolidin-1-yl)methyl)-1-isopropylquinolin-4(1H)-one]	200	10
Cc1cc(=O)c2ccc(-c3nc(N[C@@H]4CCOC[C@H]4O)ncc3Cl)cc2n1C(C)C [Example 11, 7-(5-chloro-2-(((3S,4R)-3-hydroxytetrahydro-2H-pyran-4-yl)amino)pyrimidin-4-yl)-1-isopropyl-2-methylquinolin-4(1H)-one]	420	28
CC(C)n1c(CN[C@H]2C[C@H](F)C2)cc(=O)c2ccc(-c3nc(N[C@@H]4CCOC[C@H]4O)ncc3F)cc21 [Example 63, 7-(5-fluoro-2-(((3S,4R)-3-hydroxytetrahydro-2H-pyran-4-yl)amino)pyrimidin-4-yl)-2-((((1r,3R)-3-fluorocyclobutyl)amino)methyl)-1-isopropylquinolin-4(1H)-one]	484	22
CC(C)n1c(CN2C3COCC2C3)cc(=O)c2ccc(-c3nc(N[C@@H]4CCOC[C@H]4O)ncc3F)cc21 [Example 68, 2-((3-oxa-6-azabicyclo[3.1.1]heptan-6-yl)methyl)-7-(5-fluoro-2-(((3S,4R)-3-hydroxytetrahydro-2H-pyran-4-yl)amino)pyrimidin-4-yl)-1-isopropylquinolin-4(1H)-one]	1220	34
CNC(=O)c1cc(=O)c2c(F)cc(-c3nc(N[C@@H]4CCOC[C@H]4O)ncc3F)cc2n1C(C)C [Example 19, 5-fluoro-7-(5-fluoro-2-(((3S,4R)-3-hydroxytetrahydro-2H-pyran-4-yl)amino)pyrimidin-4-yl)-1-isopropyl-N-methyl-4-oxo-1,4-dihydroquinoline-2-carboxamide]	504	24
CC(C)n1c(CN)cc(=O)c2ccc(-c3nc(N[C@@H]4CCOC[C@H]4O)ncc3F)cc21 [Example 35]	276	6.9
CC(C)n1c(CN2C3CCCC2CC(O)C3)cc(=O)c2ccc(-c3nc(N[C@@H]4CCOC[C@H]4O)ncc3F)cc21 (stereo partly drawn) [Example 90, 7-(5-fluoro-2-(((3S,4R)-3-hydroxytetrahydro-2H-pyran-4-yl)amino)pyrimidin-4-yl)-2-(((1R,3R,5S)-3-hydroxy-9-azabicyclo[3.3.1]nonan-9-yl)methyl)-1-isopropylquinolin-4(1H)-one]	251	5.7
CC(C)n1c(CN2CCOCC23CC3)cc(=O)c2ccc(-c3nc(N[C@@H]4CCOC[C@H]4O)ncc3F)cc21 [Example 73, 2-((7-oxa-4-azaspiro[2.5]octan-4-yl)methyl)-7-(5-fluoro-2-(((3S,4R)-3-hydroxytetrahydro-2H-pyran-4-yl)amino)pyrimidin-4-yl)-1-isopropylquinolin-4(1H)-one]	225	7.5

Other lines, results leading:

IC50 (CDK6/Cyclin D3) [nM]	IC50 (CDK4/Cyclin D1) [nM]	SMILES
810	30	CC(C)n1c(CN2CC(F)C2)cc(=O)c2ccc(-c3nc(N[C@@H]4CCOC[C@H]4O)ncc3F)cc21 [Example 74, 7-(5-fluoro-2-(((3S,4R)-3-hydroxytetrahydro-2H-pyran-4-yl)amino)pyrimidin-4-yl)-2-((3-fluoroazetidin-1-yl)methyl)-1-isopropylquinolin-4(1H)-one]
588	28	CC(C)n1c(CNC2CCC2)cc(=O)c2ccc(-c3nc(N[C@@H]4CCOC[C@H]4O)ncc3F)cc21 [Example 76, 2-((cyclobutylamino)methyl)-7-(5-fluoro-2-(((3S,4R)-3-hydroxytetrahydro-2H-pyran-4-yl)amino)pyrimidin-4-yl)-1-isopropylquinolin-4(1H)-one]
96.9	1.9	Cc1c(CN2CCOCC23CC3)n(C(C)C)c2cc(-c3nc(N[C@@H]4CCOC[C@H]4O)ncc3F)ccc2c1=O [Example 117, 2-((7-oxa-4-azaspiro[2.5]octan-4-yl)methyl)-7-(5-fluoro-2-(((3S,4R)-3-hydroxytetrahydro-2H-pyran-4-yl)amino)pyrimidin-4-yl)-1-isopropyl-3-methylquinolin-4(1H)-one]
176	3.9	Cc1c(CN2CCCC(F)(F)C2)n(C(C)C)c2cc(-c3nc(N[C@@H]4CCOC[C@H]4O)ncc3F)ccc2c1=O [Example 116, 2-((3,3-difluoropiperidin-1-yl)methyl)-7-(5-fluoro-2-(((3S,4R)-3-hydroxytetrahydro-2H-pyran-4-yl)amino)pyrimidin-4-yl)-1-isopropyl-3-methylquinolin-4(1H)-one]
296	8.7	CC(C)n1c(CN2[C@@H](C)COC[C@@H]2C)cc(=O)c2ccc(-c3nc(N[C@@H]4CCOC[C@H]4O)ncc3F)cc21 [Example 93, 2-(((3S,5S)-3,5-dimethylmorpholino)methyl)-7-(5-fluoro-2-(((3S,4R)-3-hydroxytetrahydro-2H-pyran-4-yl)amino)pyrimidin-4-yl)-1-isopropylquinolin-4(1H)-one]
271	6.6	Cc1c(CN2CCC(O)CC2)n(C(C)C)c2cc(-c3nc(N[C@@H]4CCOC[C@H]4O)ncc3F)ccc2c1=O [Example 115, 7-(5-fluoro-2-(((3S,4R)-3-hydroxytetrahydro-2H-pyran-4-yl)amino)pyrimidin-4-yl)-2-((4-hydroxypiperidin-1-yl)methyl)-1-isopropyl-3-methylquinolin-4(1H)-one]
928	32	CC(C)n1c(CN2CCS(=O)(=O)CC2)cc(=O)c2ccc(-c3nc(N[C@@H]4CCOC[C@H]4O)ncc3F)cc21 [Example 83, 2-((1,1-dioxidothiomorpholino)methyl)-7-(5-fluoro-2-(((3S,4R)-3-hydroxytetrahydro-2H-pyran-4-yl)amino)pyrimidin-4-yl)-1-isopropylquinolin-4(1H)-one]
850	34	CC(C)n1c(CN2CCCOCC2)cc(=O)c2ccc(-c3nc(N[C@@H]4CCOC[C@H]4O)ncc3F)cc21 [Example 79, 2-((1,4-oxazepan-4-yl)methyl)-7-(5-fluoro-2-(((3S,4R)-3-hydroxytetrahydro-2H-pyran-4-yl)amino)pyrimidin-4-yl)-1-isopropylquinolin-4(1H)-one]

— patent US20250136586A1, “Substituted 7-(Pyrimidin-4-yl)Quinolin-4(1H)-One Compounds as Cyclin Dependent Kinase Inhibitors” (BeiGene, Ltd., priority 2022, published 2025)
